As usually defined, the IC50 is the midpoint of a concentration-inhibition curve. A word on the Tmax: it is the time at which the peak concentration occurs.

Like-named read-outs stand apart in the source and are kept apart here.

From US11718620B2, “Method for treating a cancer mediated by abnormality of multi-kinases” (TransThera Sciences (Nanjing), Inc., priority 2016, dated 2023) come the findings set out here.

Data set [1] has as its target T1, Aurora A (Homo sapiens, UniProt O14965).
T1 sequence (O14965 1-403): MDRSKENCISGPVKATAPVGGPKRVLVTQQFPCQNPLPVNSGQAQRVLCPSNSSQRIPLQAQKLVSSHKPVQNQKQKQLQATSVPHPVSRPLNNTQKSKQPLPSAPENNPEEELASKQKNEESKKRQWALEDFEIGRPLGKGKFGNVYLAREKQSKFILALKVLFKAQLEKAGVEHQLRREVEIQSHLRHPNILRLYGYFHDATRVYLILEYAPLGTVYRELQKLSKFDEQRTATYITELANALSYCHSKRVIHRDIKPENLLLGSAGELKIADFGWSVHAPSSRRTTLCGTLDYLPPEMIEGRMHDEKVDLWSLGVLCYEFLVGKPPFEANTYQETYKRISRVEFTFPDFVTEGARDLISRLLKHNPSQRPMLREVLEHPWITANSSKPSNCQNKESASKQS
Put plainly: Aurora A enzymatic activity test, FAM-labeled peptide, Caliper. The settings on record: FAM-labeled peptide substrate, read-out: Kinase-inhibiting activity IC50 Aurora A. Type of data set: biochemical. As for the experimental part: (§1) Test samples: Compounds in the present invention (the sequence numbers and structures thereof are shown in Table 1), dilution concentration: 0.03 μM-3 μM, a total of 10 concentration gradients.
(§2) Test method: enzymatic activity tests of Aurora kinase (including Aurora A and Aurora B) and VEGFR2 (KDR) were performed using a multi-function microplate reader.
(§3) a) 96-well plates, 10 dose groups, 3-fold serial dilutions, each well was added with DMSO, maximal concentration of 500 μM (50-fold compound).
(§4) b) 384-well plates, diluted with 1× kinase buffer (50 mM HEPES, pH 7.5; 0.0015% Brij-35; 2 mM DTT), each well containing 5× compound dissolved in 5 μL of 10% DMSO. Each well of the negative control contains 5 μL of 1× kinase buffer containing 10% DMSO.
(§5) Aurora A, Aurora B and KDR were dissolved in 1× kinase buffer and prepared as a 2.5× enzyme solution. After the compound in various concentrations was reacted with 2.5× enzyme solution at room temperature for 10 min, the FAM-labeled peptide substrate and ATP were added to initiate reaction. After incubation for 40 minutes, 25 μL of terminal solution (100 mM HEPES, pH 7.5; 0.015% Brij-35; 0.2% Coating Reagent #3; 50 mM EDTA) was added to stop the reaction, and the final data were read by Caliper.

The target of data set [2] is KDR(VEGFR2) (Homo sapiens, UniProt P35968). Put plainly: KDR enzymatic activity test, FAM-labeled peptide, Caliper. Type of data set: biochemical. Conditions: FAM-labeled peptide substrate, read-out: Kinase-inhibiting activity IC50 KDR(VEGFR2). On the procedure: as §1, §2, §3, §4, §5
KDR(VEGFR2), sequence (P35968 20-1356): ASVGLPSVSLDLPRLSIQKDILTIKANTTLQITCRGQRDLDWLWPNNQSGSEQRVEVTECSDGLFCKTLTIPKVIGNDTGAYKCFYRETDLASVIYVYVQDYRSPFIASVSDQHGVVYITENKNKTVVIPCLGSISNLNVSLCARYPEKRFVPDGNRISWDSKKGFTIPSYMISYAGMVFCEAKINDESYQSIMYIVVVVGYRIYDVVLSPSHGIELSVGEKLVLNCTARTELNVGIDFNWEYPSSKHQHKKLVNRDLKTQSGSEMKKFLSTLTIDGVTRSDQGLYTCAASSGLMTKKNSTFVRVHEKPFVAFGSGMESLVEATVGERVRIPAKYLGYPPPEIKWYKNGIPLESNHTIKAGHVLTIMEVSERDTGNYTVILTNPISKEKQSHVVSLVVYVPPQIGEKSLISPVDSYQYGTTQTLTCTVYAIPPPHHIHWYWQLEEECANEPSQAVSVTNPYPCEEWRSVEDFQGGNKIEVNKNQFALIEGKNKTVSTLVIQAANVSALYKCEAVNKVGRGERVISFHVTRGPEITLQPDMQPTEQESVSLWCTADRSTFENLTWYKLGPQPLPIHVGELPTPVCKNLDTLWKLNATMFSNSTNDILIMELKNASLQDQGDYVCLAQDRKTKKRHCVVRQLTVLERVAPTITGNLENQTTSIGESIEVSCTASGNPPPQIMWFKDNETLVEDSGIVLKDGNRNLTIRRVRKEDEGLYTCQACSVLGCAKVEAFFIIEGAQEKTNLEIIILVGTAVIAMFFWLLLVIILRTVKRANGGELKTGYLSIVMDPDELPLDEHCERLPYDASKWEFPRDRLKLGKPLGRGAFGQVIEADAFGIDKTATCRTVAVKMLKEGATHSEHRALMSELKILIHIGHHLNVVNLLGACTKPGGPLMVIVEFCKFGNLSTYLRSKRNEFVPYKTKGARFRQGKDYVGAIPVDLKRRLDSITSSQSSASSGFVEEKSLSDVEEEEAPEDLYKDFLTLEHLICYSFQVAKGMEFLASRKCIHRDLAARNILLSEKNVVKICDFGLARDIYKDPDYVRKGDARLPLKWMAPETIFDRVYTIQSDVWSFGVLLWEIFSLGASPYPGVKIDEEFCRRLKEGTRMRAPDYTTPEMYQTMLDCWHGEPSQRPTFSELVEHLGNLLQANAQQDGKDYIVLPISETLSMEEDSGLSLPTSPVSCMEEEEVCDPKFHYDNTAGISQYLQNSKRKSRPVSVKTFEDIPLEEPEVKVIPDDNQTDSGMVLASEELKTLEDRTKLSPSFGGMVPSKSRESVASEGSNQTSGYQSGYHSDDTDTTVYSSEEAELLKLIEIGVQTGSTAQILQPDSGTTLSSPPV
The target of data set [3] is Aurora B (Homo sapiens, UniProt Q96GD4). As to the kind of experiment: Aurora B enzymatic activity test, FAM-labeled peptide, Caliper. Type of data set: biochemical. Conditions: FAM-labeled peptide substrate, read-out: Kinase-inhibiting activity IC50 Aurora B. As for the experimental part: as §1, §2, §3, §4, §5
Aurora B, sequence (Q96GD4 whole entry): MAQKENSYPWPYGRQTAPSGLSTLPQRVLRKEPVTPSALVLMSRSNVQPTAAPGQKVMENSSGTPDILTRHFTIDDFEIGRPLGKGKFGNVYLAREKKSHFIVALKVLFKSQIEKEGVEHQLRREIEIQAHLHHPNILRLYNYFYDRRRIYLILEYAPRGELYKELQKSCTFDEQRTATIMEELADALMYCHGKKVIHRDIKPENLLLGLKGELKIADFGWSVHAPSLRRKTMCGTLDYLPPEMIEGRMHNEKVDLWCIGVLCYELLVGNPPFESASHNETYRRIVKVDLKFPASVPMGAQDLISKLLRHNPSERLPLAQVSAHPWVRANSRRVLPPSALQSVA
Data set [4] relates to A549 Lung cancer cells. Put plainly: Cell proliferation, Cell Titer-Glo. Format: cell-based. Conditions: Homo sapiens, 72 hours, read-out: Cellular inhibitory activity IC50 A549. On the procedure: (§6) Test method: The effect of compounds on cell proliferation of different cell lines was examined by Cell Titer-Glo method.
(§7) Each cell line was inoculated into a 96-well plate one day in advance, and after overnight incubation, drugs in different concentrations were added to a final concentration of 0-10000 nM, 3-5 folds dilution, for a total of 10 concentration points. After incubation for 72 hours, the mixture was added with Cell titer-Glo reagent equilibrated at room temperature, and shaken to incubation for 10 min, and then allowed to stand at room temperature for 2 min to stabilize the light signal. The multi-function microplate reader was used to read data from each well and analyze it.

For data set [5], the system named is BT-549 breast cancer cells. As to the kind of experiment: Cell proliferation, Cell Titer-Glo. Format: cell-based. The settings on record: Homo sapiens, 72 hours, read-out: Cellular inhibitory activity IC50 BT-549. As for the experimental part: as §6, §7
Background: In ATP-based viability assays light output follows the ATP content of the culture.

Data set [6] deals with D4475 breast cancer cells. Put plainly: Cell proliferation, Cell Titer-Glo. Format: cell-based. The settings on record: 72 hours, read-out: Cellular inhibitory activity IC50 D4475. As for the experimental part:
as §6, §7

In data set [7] the test system is MDA-MB-468 breast cancer cells. Put plainly: Cell proliferation, Cell Titer-Glo. Type of data set: cell-based. The settings on record: Homo sapiens, 72 hours, read-out: Cellular inhibitory activity IC50 MDA-MB-468. As for the experimental part:
as §6, §7

The subject of data set [8] is human acute granulocytic leukemia Kasumi-1 cells xenograft. Put plainly: In vivo pharmacodynamic study, subcutaneous xenograft tumor model. Details: species or system CB17 SCID mice. The settings on record: for Tumor Weight: QD × 18, Kasumi-1 tumor-bearing mice; for Tumor Growth Inhibition rate (TGI): QD × 18, by tumor weight. On the procedure: (§8) Test sample: crystal form I prepared in Example 17 (crystal form I of compound 29)
Animals, Cells, Reagents & Instruments: Kasumi-1 cells, derived from ATCC.
CB17 SCID mice, 6-8 weeks, female, available from Shanghai Lingchang Biotechnology Co., Ltd.
Kasumi-1 cells were cultured in vitro in a single layer, and culture conditions were as follows: RPMI1640 medium supplemented with 10% heat-inactivated fetal bovine serum and 1% penicillin-streptomycin double antibody, 37° C., and 5% CO2. Passage was achieved two to three times a week. When the cells were in the exponential growth phase, the cells were harvested, counted, and inoculated.
0.2 mL of cell suspension containing about 1×10^7 Kasumi-1 cells (cell suspended in 1:1 base RPMI 1640 medium and nutrient gel) was subcutaneously inoculated into the right back of female CB17 SCID mice. Grouping administration was started when the average tumor volume reached 100-150 mm^3. Grouping method: Animals were weighed prior to administration and tumor volume was measured. Grouping was performed according to the tumor volume, with 8 mice per group.
Health and death of the animals were monitored daily. Body weight was measured twice a week, and samples were collected after the last dose and the tumor weight was weighed.

Data set [9] is described as follows: PK evaluation in beagle dogs. Type of data set: in vivo. As for the experimental part:
as §8
(1) Administration to animals: All animals were fasted for more than 12 h before administration, and fed at 4 h after the administration. […] Beagle dogs were given intravenously 1 mg/kg of crystal form I of compound 29 (prescription: 10% DMA+20% (30% Solutol)+70% saline) in a single dose, and blood was collected at 0 h before administration and 0.083, 0.25, 0.50, 1.0, 2.0, 4.0, 6.0, 8.0, 12 and 24 h after administration. Beagle dogs were given orally 2 mg/kg of crystal form I of compound 29 (Prescription: 10% DMA+20% (30% Solutol)+70% saline) in a single dose, and blood was collected at 0 h before administration and at 0.25, 0.50, 1.0, 2.0, 4.0, 6.0, 8.0, 12, and 24 h after administration, and 200 μL blood was taken through a small saphenous vein, and placed in a dried EDTA-K2 test tube. (2) Preparation of plasma: The whole blood sample was separated by low-speed centrifugation (1800 g, 5 min, 4° C.) (the whole blood was collected and placed in an ice bath, and plasma separation should be completed within 30 min) to give plasma, and the separated plasma was stored in a refrigerator at […] for analysis.
The sample to be tested (−80° C.) was taken from the refrigerator, thawed naturally at room temperature and vortexed for 5 min; 20 μL of plasma sample was accurately aspirated into a 1.5 mL centrifuge tube; added with 200 μL of internal standard working solution at a concentration of 50 ng/mL, and mixed well; after vortexed for 5 min, the mixture was centrifuged for 5 min (12000 rpm); 50 μL of supernatant was accurately aspirated into 96-well plates pre-filled with 150 μL/well of water; vortexed for 5 min, LC-MS/MS determination was performed in an injection volume of 15 μL.
The concentration of test sample was output using Analyst 1.6.1 from AB SCIEX.

Where [10] appears, read: intravenously 1 mg/kg single dose.

With `Cc1[nH]nc2c1N=C(c1ccccc1Cl)c1cnc(N3CCO[C@H](C)C3)cc1N2` (stereo in doubt) [Compound 40], the IC50 in data set [1] came out at 2.7 nM; in data set [2] it was 2.9 nM; in data set [3], 11 nM.

Regarding `Cc1[nH]nc2c1N=C(c1ccccc1Cl)c1cnc(N3CCNCC3)cc1N2` [Compound 37], the IC50 is 5.4 nM in data set [1], 1.7 nM in data set [2] and 8.8 nM in data set [3].

For `Cc1[nH]nc2c1N=C(c1ccccc1Cl)c1cnc(CN3CCNCC3)cc1N2` [Compound 38], the IC50 in [1] worked out at 18 nM; in data set [2] it was 4.2 nM; in [3], 16 nM.

Regarding `Cc1[nH]nc2c1N=C(c1ccccc1Cl)c1cnc(N3C[C@@H](C)N(C)[C@@H](C)C3)cc1N2` [Compound 41], the figures for the IC50 in data set [1], in data set [2] and in [3] were 15 nM, 7.9 nM and 24 nM, respectively.

Take `Cc1[nH]nc2c1N=C(c1ccccc1Cl)c1cnc(N3CCN(C)[C@H](C)C3)cc1N2` [Compound 42]: the IC50 in [1] came to 3 nM; in data set [2], 9.7 nM; in data set [3], 1.7 nM.

Consider `Cc1[nH]nc2c1N=C(c1ccccc1Cl)c1cnc(N3CCN(C)C(=O)C3)cc1N2` [Compound 43], for which the IC50 turned out to be 2.1 nM in [1], 1.8 nM in [2] and 5.8 nM in [3].

With `Cc1[nH]nc2c1N=C(c1ccccc1Cl)c1cnc(N3CCN(C4CC4)CC3)cc1N2` [Compound 44], the IC50 in [1] amounted to 0.82 nM; in data set [2], 1.5 nM; in data set [3], 6.8 nM; in data set [4], 358 nM; in data set [5], 249 nM; in data set [6] it was 101 nM. The IC50 in data set [7] was 984 nM.

For the molecule `Cc1[nH]nc2c1N=C(c1ccccc1Cl)c1cnc(N3CC4CC3CO4)cc1N2` (stereo not drawn) [Compound 45], the IC50 is 1 nM in [1]; 0.3 nM in data set [2]; 4.7 nM in data set [3]; 507 nM in data set [4]; 186 nM in data set [5]; 171 nM in [6]. The IC50 in [7] is 491 nM.

With `Cc1[nH]nc2c1N=C(c1ccccc1Cl)c1cnc(N3CC4COCC4C3)cc1N2` (stereo not drawn) [Compound 46], the concentration for half-maximal inhibition (IC50) in [1] is 0.41 nM; in [2] it was 0.53 nM; in data set [3], 3.1 nM; in data set [4], 211 nM; in data set [5], 83 nM; in data set [6], 48 nM. For the same molecule, the IC50 in [7] amounted to 319 nM.

Take `Cc1[nH]nc2c1N=C(c1ccccc1Cl)c1cnc(N3CC4(COC4)C3)cc1N2` [Compound 48]: the results for the IC50 in data set [1], in data set [2] and in data set [3] were 1.4 nM, 1.8 nM and 5.2 nM, respectively.

On to `Cc1[nH]nc2c1N=C(c1ccccc1Cl)c1cnc(N3CCOCC3)cc1N2` [Crystal form I of compound 29, 4-(5-(2-chlorophenyl)-3-methyl-2,10-dihydropyrazolo[4,3-b]pyrido[4,3-e][1,4]diazepin-8-yl) morpholine], for which, in [8] (5 mg/kg po), the “Tumor Weight” value is given as 0.435 ± 0.091 g and the “Tumor Growth Inhibition rate (TGI)” value came out at 69.58%. In addition, in data set [8] (15 mg/kg po), the “Tumor Weight” value is recorded as 0.100 ± 0.014 g and the “Tumor Growth Inhibition rate (TGI)” value came to 92.98%. Also, in [8] (result in words), the “inhibitory effect on the Kasumi-1 cell xenograft model” value is “significant inhibitory effect”. The AUC(0-inf) in data set [9] (dog, plasma, iv, intravenously 1 mg/kg single dose, read-out: AUCinf iv) was found to be 4650 ng·h/mL. In addition, the Tmax in data set [9] (dog, plasma, po, orally 2 mg/kg single dose) came to 2 h. For the same molecule, the AUC(0-inf) in data set [9] (dog, plasma, po, orally 2 mg/kg single dose, read-out: AUCinf po) amounted to 8600 ng·h/mL. In data set [9] (setting [10]), this molecule showed a Cl_obs iv of 0.22 L/h/kg, a Vz_obs iv of 2.35 L/kg and a tz1/2 iv of 7.64 h. The molecule further displayed a tZl1/2po in [9] (orally 2 mg/kg single dose) of 6.87 h.
